Experiments:
[1] = target: T1, Ephrin type-B receptor 1 (Homo sapiens) (UniProt P54762); assay: Inhibition of human recombinant EphB1 at 500 nM related to control ULK1
T1 sequence (whole entry): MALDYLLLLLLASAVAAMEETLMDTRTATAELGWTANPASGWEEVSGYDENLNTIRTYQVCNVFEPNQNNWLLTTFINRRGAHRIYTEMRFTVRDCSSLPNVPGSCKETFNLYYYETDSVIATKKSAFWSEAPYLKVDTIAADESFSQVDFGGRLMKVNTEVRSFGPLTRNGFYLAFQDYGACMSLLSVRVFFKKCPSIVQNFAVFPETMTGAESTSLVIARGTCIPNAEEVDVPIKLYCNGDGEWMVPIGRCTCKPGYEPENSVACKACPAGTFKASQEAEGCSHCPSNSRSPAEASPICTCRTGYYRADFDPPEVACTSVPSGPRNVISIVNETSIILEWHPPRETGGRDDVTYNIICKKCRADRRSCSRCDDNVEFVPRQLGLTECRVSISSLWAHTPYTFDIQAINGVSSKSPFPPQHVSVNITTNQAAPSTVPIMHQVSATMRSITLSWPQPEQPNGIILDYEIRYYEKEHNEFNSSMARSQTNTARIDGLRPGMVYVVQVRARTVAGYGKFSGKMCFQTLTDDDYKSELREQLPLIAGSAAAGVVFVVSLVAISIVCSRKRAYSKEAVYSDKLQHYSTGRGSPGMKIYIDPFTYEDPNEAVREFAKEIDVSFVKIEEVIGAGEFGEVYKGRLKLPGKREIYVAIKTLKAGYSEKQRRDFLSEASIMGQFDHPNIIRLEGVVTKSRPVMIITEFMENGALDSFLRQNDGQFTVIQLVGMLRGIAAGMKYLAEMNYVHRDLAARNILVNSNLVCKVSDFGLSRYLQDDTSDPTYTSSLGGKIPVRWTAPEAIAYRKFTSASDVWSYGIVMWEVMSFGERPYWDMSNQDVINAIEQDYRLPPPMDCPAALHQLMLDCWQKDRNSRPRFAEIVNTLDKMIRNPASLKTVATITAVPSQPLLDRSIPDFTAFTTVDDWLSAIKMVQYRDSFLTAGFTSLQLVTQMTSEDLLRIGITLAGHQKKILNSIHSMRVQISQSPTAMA

[2] = target: T2, Serine/threonine-protein kinase DCLK2 (Homo sapiens) (UniProt Q8N568); assay: Inhibition of human recombinant DCAMKL2 at 15 nM related to control ULK1
T2 sequence (whole entry): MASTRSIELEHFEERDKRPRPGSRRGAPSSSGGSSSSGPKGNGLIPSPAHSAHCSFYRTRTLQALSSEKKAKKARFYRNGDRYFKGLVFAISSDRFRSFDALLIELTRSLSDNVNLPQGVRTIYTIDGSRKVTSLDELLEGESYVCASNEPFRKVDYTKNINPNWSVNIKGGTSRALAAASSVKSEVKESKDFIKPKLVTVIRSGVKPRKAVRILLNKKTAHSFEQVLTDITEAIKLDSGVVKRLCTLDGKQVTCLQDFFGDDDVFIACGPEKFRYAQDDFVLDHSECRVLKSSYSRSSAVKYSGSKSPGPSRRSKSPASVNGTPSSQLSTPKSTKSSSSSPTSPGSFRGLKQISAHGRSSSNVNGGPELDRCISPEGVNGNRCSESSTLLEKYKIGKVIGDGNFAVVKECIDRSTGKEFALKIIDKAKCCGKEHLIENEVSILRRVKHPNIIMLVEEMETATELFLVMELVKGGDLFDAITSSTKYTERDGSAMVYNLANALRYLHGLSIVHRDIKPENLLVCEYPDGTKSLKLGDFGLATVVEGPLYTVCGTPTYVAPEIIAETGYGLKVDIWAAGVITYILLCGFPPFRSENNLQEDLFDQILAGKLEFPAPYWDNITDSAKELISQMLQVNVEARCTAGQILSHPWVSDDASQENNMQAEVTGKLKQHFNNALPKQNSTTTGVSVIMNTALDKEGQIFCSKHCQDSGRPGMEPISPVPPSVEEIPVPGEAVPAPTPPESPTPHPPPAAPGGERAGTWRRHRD

[3] = target: Tyrosine-protein kinase Fer (Homo sapiens) (UniProt P16591); assay: Inhibition of human recombinant FER at 15 nM in presence of ATP by radiometric assay relative to control
[4] = target: T3, Tyrosine-protein kinase JAK3 (Homo sapiens) (UniProt P52333); assay: Inhibition of human recombinant JAK3 at 15 nM in presence of ATP by radiometric assay relative to control
T3 sequence (whole entry): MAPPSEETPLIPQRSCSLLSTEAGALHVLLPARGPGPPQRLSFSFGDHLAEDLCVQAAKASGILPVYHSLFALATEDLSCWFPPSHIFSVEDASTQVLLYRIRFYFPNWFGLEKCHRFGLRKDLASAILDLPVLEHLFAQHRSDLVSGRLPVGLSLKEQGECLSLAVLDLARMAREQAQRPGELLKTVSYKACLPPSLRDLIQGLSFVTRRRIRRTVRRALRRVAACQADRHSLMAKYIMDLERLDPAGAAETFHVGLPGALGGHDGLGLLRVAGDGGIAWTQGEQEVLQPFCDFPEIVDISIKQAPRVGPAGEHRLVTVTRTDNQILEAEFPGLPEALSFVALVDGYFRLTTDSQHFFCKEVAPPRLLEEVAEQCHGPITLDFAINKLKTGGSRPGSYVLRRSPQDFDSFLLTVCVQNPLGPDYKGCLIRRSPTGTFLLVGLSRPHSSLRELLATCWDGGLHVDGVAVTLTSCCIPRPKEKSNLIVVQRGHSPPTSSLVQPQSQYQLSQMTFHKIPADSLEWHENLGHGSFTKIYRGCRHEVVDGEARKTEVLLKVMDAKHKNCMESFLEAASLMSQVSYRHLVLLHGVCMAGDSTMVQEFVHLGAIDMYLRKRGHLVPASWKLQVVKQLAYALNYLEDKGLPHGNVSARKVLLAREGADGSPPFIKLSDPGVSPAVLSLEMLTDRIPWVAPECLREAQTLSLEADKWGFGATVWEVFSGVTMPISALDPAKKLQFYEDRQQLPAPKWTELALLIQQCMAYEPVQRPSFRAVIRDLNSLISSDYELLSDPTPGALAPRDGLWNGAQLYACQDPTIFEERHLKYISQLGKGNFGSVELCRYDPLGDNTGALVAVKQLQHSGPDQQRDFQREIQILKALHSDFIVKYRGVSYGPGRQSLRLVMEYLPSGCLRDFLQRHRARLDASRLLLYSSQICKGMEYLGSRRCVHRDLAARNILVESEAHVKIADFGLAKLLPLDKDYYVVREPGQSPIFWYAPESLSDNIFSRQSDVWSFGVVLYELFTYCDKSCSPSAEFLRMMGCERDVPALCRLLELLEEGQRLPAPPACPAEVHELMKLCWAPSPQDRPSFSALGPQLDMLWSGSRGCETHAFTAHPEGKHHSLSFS

Tyrosine-protein kinase Fer (Homo sapiens), sequence (P16591 whole entry, looked up): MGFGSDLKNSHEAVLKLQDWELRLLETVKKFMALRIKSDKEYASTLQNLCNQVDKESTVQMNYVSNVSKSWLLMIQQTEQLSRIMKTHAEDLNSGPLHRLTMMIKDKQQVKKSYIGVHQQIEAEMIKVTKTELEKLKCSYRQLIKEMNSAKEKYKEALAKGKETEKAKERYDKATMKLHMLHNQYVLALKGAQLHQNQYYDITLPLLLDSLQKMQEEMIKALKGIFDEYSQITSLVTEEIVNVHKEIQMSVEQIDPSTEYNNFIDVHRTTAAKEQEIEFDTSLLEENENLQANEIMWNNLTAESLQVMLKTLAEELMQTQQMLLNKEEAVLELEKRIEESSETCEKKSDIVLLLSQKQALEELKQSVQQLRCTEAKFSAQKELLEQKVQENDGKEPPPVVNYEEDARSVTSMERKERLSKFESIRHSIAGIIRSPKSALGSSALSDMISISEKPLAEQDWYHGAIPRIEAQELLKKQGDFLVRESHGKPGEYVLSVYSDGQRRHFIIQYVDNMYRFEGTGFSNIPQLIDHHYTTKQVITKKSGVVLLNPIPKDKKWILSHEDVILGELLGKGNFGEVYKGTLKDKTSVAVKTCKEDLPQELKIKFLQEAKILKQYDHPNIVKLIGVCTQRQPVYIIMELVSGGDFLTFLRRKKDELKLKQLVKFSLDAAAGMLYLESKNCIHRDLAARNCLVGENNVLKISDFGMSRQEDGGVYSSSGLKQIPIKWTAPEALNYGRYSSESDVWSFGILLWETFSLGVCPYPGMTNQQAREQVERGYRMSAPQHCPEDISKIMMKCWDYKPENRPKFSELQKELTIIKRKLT

Compound | fold change (FC) [1] | fold change (FC) [2] | inhibition [3] | inhibition [4]
CNC(=O)c1ccccc1Oc1nc(Nc2cc(OC)c(OC)c(OC)c2)ncc1Br | 0.14 |  |  | 
CC(C)[C@H](NC(=O)c1cc(-c2cnn3cc(-c4ccc(OCCN5CCCCC5)cc4)cnc23)cs1)C(F)(F)F |  | 0.14 | 0% | 0%
